Measured values published in PMC10402865, “Fragment-based design, synthesis and biological evaluation of theophylline derivatives as ATAD2 inhibitors in BT-549 cells” (Journal of Enzyme Inhibition and Medicinal Chemistry, 2023).

Experiments:
ATAD2 = conditions: cited from earlier work
BT-549 cells = assay: Cell viability (MTT) assay, anti-proliferative activity; type: cell-based; conditions: Homo sapiens, MTT, 24 h, mean ± SD
Method: BT-549 cells were seeded at a density of 5 × 10^4 cells/ml in a 96-well plate. Following a 24-h incubation period, the cells were exposed to various concentrations of different compounds for the specified durations. Cell viability was evaluated using an MTT assay.

[1] = target: T1, ATAD2 recombinant bromodomain protein (Homo sapiens, UniProt Q6PL18); assay: ATAD2 enzymatic assay by TR-FRET technology; type: binding; conditions: for ATAD2 inhibitory activity, in words / IC50: TR-FRET; for IC50: mean ± SD, read-out: Kinase inhibitory activity (IC50, μM) ATAD2
T1 sequence (Q6PL18 980-1092 limits assumed): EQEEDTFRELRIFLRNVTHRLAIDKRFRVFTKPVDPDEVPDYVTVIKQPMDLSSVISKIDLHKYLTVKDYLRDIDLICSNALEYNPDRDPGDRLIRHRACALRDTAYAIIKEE
Method: The assay was performed by TR-FRET technology using recombinant bromodomain and BET Ligand[8]. The compounds were diluted with indicated folds in 5% DMSO in reaction buffer and 2 µl of the dilution was added to a 20 µl reaction so that the final concentration of DMSO is 0.5% in all of the reactions. The 20 µl reaction mixture consists of the ATAD2 recombinant bromodomain protein, the indicated amount of the inhibitor, ligand, and the reactive dyes. The reaction mixture was incubated for 3 h before reading the TR-FRET signal. Fluorescence signals for both the donor and acceptor dyes were measured using a Tecan Infinite M1000 plate reader. Binding experiments were performed in duplicate at each concentration and the data were analysed using GraphPad Prism.

Row | Compound | melting point | IC50 (BT-549 cells) | ATAD2 inhibitory activity, in words [1] | IC50 [1] | increase in ATAD2 activity compared to 19d [1] | IC50 (ATAD2)
1 | Cc1nnc2c(NC3CCN(CC(C)(C)F)CC3)cc(C(=O)N3C4Cc5ccccc5C3C(C(C)C)NC4=O)nn12 (stereo not shown) [AZ4347] | – | – | – | – | – | 0.02 µM
2 | C[C@H]1CCN(S(=O)(=O)c2cc(NC(=O)CN3C(=O)N[C@@](C)(C4CC4)C3=O)ccc2Br)C1 [Compound 2] | – | – | – | – | – | 0.063 µM
3 | Cn1c(=O)c2ncn(CC(=O)Nc3cccc(C(=O)N4CCSCC4)c3)c2n(C)c1=O [Compound 15a, 2–(1,3-dimethyl-2,6-dioxo-1,2,3,6-tetrahydro-9H-purin-9-yl)-N-(3-(thiomorpholine-4-carbonyl)phenyl)acetamide] | 246 to 248 °C | > 30 µM | without ATAD2 inhibition activity | > 25 µM | – | –
4 | Cc1ccc(C(=O)N2CCSCC2)cc1NC(=O)Cn1cnc2c(=O)n(C)c(=O)n(C)c21 [Compound 15b, 2–(1,3-dimethyl-2,6-dioxo-1,2,3,6-tetrahydro-9H-purin-9-yl)-N-(2-methyl-5-(thiomorpholine-4-carbonyl)phenyl)acetamide] | 251 to 252 °C | > 30 µM | weak inhibitory activities against ATAD2 | 19.3 ± 2.35 µM | – | –
5 | COc1ccc(C(=O)N2CCSCC2)cc1NC(=O)Cn1cnc2c(=O)n(C)c(=O)n(C)c21 [Compound 15c, 2–(1,3-dimethyl-2,6-dioxo-1,2,3,6-tetrahydro-9H-purin-9-yl)-N-(2-methoxy-5-(thiomorpholine-4-carbonyl)phenyl)acetamide] | 257 to 258 °C | > 30 µM | weak inhibitory activities against ATAD2 | 14.8 ± 1.78 µM | – | –
6 | Cn1c(=O)c2ncn(CC(=O)Nc3cccc(C(=O)N4CCS(=O)(=O)CC4)c3)c2n(C)c1=O [Compound 15d, 2–(1,3-dimethyl-2,6-dioxo-1,2,3,6-tetrahydro-9H-purin-9-yl)-N-(3–(1,1-dioxidothiomorpholine-4-carbonyl)phenyl)acetamide] | 224 to 226 °C | > 30 µM | – | > 25 µM | – | –
7 | Cc1ccc(C(=O)N2CCS(=O)(=O)CC2)cc1NC(=O)Cn1cnc2c(=O)n(C)c(=O)n(C)c21 [Compound 15e, 2–(1,3-dimethyl-2,6-dioxo-1,2,3,6-tetrahydro-9H-purin-9-yl)-N-(5–(1,1-dioxidothiomorpholine-4-carbonyl)-2-methylphenyl)acetamide] | 231 to 233 °C | > 30 µM | – | > 25 µM | – | –
8 | COc1ccc(C(=O)N2CCS(=O)(=O)CC2)cc1NC(=O)Cn1cnc2c(=O)n(C)c(=O)n(C)c21 [Compound 15f, 2–(1,3-dimethyl-2,6-dioxo-1,2,3,6-tetrahydro-9H-purin-9-yl)-N-(5–(1,1-dioxidothiomorpholine-4-carbonyl)-2-methoxyphenyl)acetamide] | – | > 30 µM | – | > 25 µM | – | –
9 | Cn1c(=O)c2ncn(CC(=O)Nc3cccc(C(=O)N4CCOCC4)c3)c2n(C)c1=O [Compound 15g, 2–(1,3-dimethyl-2,6-dioxo-1,2,3,6-tetrahydro-9H-purin-9-yl)-N-(3-(morpholine-4-carbonyl)phenyl)acetamide] | 266 to 268 °C | > 30 µM | weak inhibition potency | 21.2 ± 3.17 µM | – | –
10 | Cc1ccc(C(=O)N2CCOCC2)cc1NC(=O)Cn1cnc2c(=O)n(C)c(=O)n(C)c21 [Compound 15h, 2–(1,3-dimethyl-2,6-dioxo-1,2,3,6-tetrahydro-9H-purin-9-yl)-N-(2-methyl-5-(morpholine-4-carbonyl)phenyl)acetamide] | 270 to 271 °C | > 30 µM | – | > 25 µM | – | –
11 | COc1ccc(C(=O)N2CCOCC2)cc1NC(=O)Cn1cnc2c(=O)n(C)c(=O)n(C)c21 [Compound 15i, 2–(1,3-dimethyl-2,6-dioxo-1,2,3,6-tetrahydro-9H-purin-9-yl)-N-(2-methoxy-5-(morpholine-4-carbonyl)phenyl)acetamide] | 278 to 279 °C | 28 ± 3.61 µM | – | 11.3 ± 2.79 µM | – | –
12 | Cn1c(=O)c2ncn(CC(=O)Nc3cc(C(=O)N4CCOCC4)ccc3Cl)c2n(C)c1=O [Compound 15j, N-(2-chloro-5-(morpholine-4-carbonyl)phenyl)-2–(1,3-dimethyl-2,6-dioxo-1,2,3,6-tetrahydro-9H-purin-9-yl)acetamide] | 262 to 264 °C | 26.1 ± 3.77 µM | – | 15.2 ± 3.63 µM | – | –
13 | Cn1c(=O)c2ncn(CC(=O)Nc3cccc(C(=O)N4CCOCC4)c3F)c2n(C)c1=O [Compound 15k, 2–(1,3-dimethyl-2,6-dioxo-1,2,3,6-tetrahydro-9H-purin-9-yl)-N-(2-fluoro-3-(morpholine-4-carbonyl)phenyl)acetamide] | 265 to 267 °C | > 30 µM | – | > 25 µM | – | –
14 | CC(C)N1CCc2c(nnn2CC(=O)Nc2ccc(Br)c(S(=O)(=O)N3CC[C@H](C)C3)c2)C1 [GSK232] | – | – | – | – | – | 0.032 µM
15 | CO[C@H]1CNC[C@@H](OCC2CCC(F)(F)CC2)[C@@H]1Nc1ncc(-c2cncc(C)c2)c2cc(C)c(=O)[nH]c12 [GSK8814] | – | – | – | – | – | 0.059 µM
16 | Cn1c(=O)c2[nH]cnc2n(C)c1=O [TS-2, theophylline] | – | – | – | 324 µM | – | –

More lines, main results first:

Row | melting point | IC50 (BT-549 cells) | ATAD2 inhibitory activity, in words [1] | IC50 [1] | increase in ATAD2 activity compared to 19d [1] | Compound | IC50 (ATAD2)
17 | 222 to 224 °C | > 30 µM | – | 13.8 ± 2.57 µM | – | Cn1c(=O)c2ncn(CC(=O)Nc3cccc(C(=O)NC4CC4)c3)c2n(C)c1=O [Compound 19a, N-cyclopropyl-3–(2-(1,3-dimethyl-2,6-dioxo-1,2,3,6-tetrahydro-9H-purin-9-yl)acetamido)benzamide] | –
18 | 218 to 219 °C | 18.7 ± 3.06 µM | – | 9.06 ± 1.81 µM | – | Cc1ccc(C(=O)NC2CC2)cc1NC(=O)Cn1cnc2c(=O)n(C)c(=O)n(C)c21 [Compound 19b, N-cyclopropyl-3–(2-(1,3-dimethyl-2,6-dioxo-1,2,3,6-tetrahydro-9H-purin-9-yl)acetamido)-4-methylbenzamide] | –
19 | 231 to 233 °C | 21.9 ± 4.03 µM | – | 9.19 ± 1.9 µM | – | COc1ccc(C(=O)NC2CC2)cc1NC(=O)Cn1cnc2c(=O)n(C)c(=O)n(C)c21 [Compound 19c, N-cyclopropyl-3–(2-(1,3-dimethyl-2,6-dioxo-1,2,3,6-tetrahydro-9H-purin-9-yl)acetamido)-4-methoxybenzamide] | –
20 | 207 to 208 °C | 17.9 ± 3.54 µM | – | 5.13 ± 0.72 µM | – | Cn1c(=O)c2ncn(CC(=O)Nc3cccc(C(=O)NC4CCCC4)c3)c2n(C)c1=O [Compound 19d, N-cyclopentyl-3–(2-(1,3-dimethyl-2,6-dioxo-1,2,3,6-tetrahydro-9H-purin-9-yl)acetamido)benzamide] | –
21 | 211 to 213 °C | 11.3 ± 2.7 µM | – | 1.78 ± 0.39 µM | about a three-fold increase in activity | Cc1ccc(C(=O)NC2CCCC2)cc1NC(=O)Cn1cnc2c(=O)n(C)c(=O)n(C)c21 [Compound 19e, N-cyclopentyl-3–(2-(1,3-dimethyl-2,6-dioxo-1,2,3,6-tetrahydro-9H-purin-9-yl)acetamido)-4-methylbenzamide] | –
22 | 195 to 197 °C | 25.1 ± 4.27 µM | – | 17.3 ± 3.92 µM | – | Cn1c(=O)c2ncn(CC(=O)Nc3cccc(C(=O)NC4CCCCC4)c3)c2n(C)c1=O [Compound 19g, N-cyclohexyl-3–(2-(1,3-dimethyl-2,6-dioxo-1,2,3,6-tetrahydro-9H-purin-9-yl)acetamido)benzamide] | –
23 | 199 to 201 °C | 11.7 ± 2.46 µM | – | 19.7 ± 4.38 µM | – | Cc1ccc(C(=O)NC2CCCCC2)cc1NC(=O)Cn1cnc2c(=O)n(C)c(=O)n(C)c21 [Compound 19h, N-cyclohexyl-3–(2-(1,3-dimethyl-2,6-dioxo-1,2,3,6-tetrahydro-9H-purin-9-yl)acetamido)-4-methylbenzamide] | –
24 | 185 to 187 °C | 22 ± 3.35 µM | – | 12.3 ± 3.06 µM | – | COc1ccc(C(=O)NC2CCCCC2)cc1NC(=O)Cn1cnc2c(=O)n(C)c(=O)n(C)c21 [Compound 19i, N-cyclohexyl-3–(2-(1,3-dimethyl-2,6-dioxo-1,2,3,6-tetrahydro-9H-purin-9-yl)acetamido)-4-methoxybenzamide] | –
25 | 189 to 190 °C | > 30 µM | – | > 25 µM | – | Cn1c(=O)c2ncn(CC(=O)Nc3cccc(C(=O)NC4CCCCCC4)c3)c2n(C)c1=O [Compound 19j, N-cycloheptyl-3–(2-(1,3-dimethyl-2,6-dioxo-1,2,3,6-tetrahydro-9H-purin-9-yl)acetamido)benzamide] | –
26 | 194 to 196 °C | > 30 µM | – | > 25 µM | – | Cc1ccc(C(=O)NC2CCCCCC2)cc1NC(=O)Cn1cnc2c(=O)n(C)c(=O)n(C)c21 [Compound 19k, N-cycloheptyl-3–(2-(1,3-dimethyl-2,6-dioxo-1,2,3,6-tetrahydro-9H-purin-9-yl)acetamido)-4-methylbenzamide] | –
27 | 197 to 198 °C | > 30 µM | – | > 25 µM | – | COc1ccc(C(=O)NC2CCCCCC2)cc1NC(=O)Cn1cnc2c(=O)n(C)c(=O)n(C)c21 [Compound 19l, N-cycloheptyl-3–(2-(1,3-dimethyl-2,6-dioxo-1,2,3,6-tetrahydro-9H-purin-9-yl)acetamido)-4-methoxybenzamide] | –
28 | – | – | – | 411 µM | – | Cc1cc2c(cc1N)n(C)c(=O)n2C [TS-1] | –
